# Assay results taken from patent publication US6914045B2, “Glycopeptide antibiotics” (Wyeth Holdings Corporation, priority 2001, dated 2005).
# Assays:
# Test in all cases: in vitro antibacterial evaluation, MIC by broth dilution
# Format in all cases: cell-based
# Escherichia coli = conditions: 18 hours at 35° C.
# Staphylococcus sp. = conditions: broth dilution, 18 hours at 35° C.
# Procedure, shortened: (§1)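 Following National Committee for Clinical Laboratory Standards recommendations (M7-A2), susceptibility was measured by dilution in Muller-Hinton II […]. Bacteria were seeded at 5×10^5 CFU/mL against compound concentrations from 64 down to 0.06 μg/mL.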
# Streptococcus sp. = conditions: broth dilution, 18 hours at 35° C.
# Procedure, shortened: as §1
# Enterococcus sp. = conditions: broth dilution, 18 hours at 35° C.
# Procedure, shortened: as §1
structure (smiles),measurement,setting,value
CCOc1cc(COCC2OC(OC3C(CO)OC(Oc4ccc(CC5NC(=O)C(C(C)c6ccccc6)NC(=O)CNC(=O)C(CO)NC(=O)C(C(O)C6CNC(=N)N6C6OC(CO)C(O)C(O)C6O)NC(=O)C(C(O)C6CNC(=N)N6)NC5=O)cc4)C(O)C3O)C(O)C(O)C2O)ccc1OC (stereo not shown) [Example 238],MIC Escherichia coli (ATCC 25922),Escherichia coli,>64 µg/mL
same,MIC Escherichia coli (GC 4559),Escherichia coli,>64 µg/mL
same,MIC Escherichia coli (GC 4560),Escherichia coli,2 µg/mL
same,MIC Coagulase Negative Staphylococcus (GC 4547),Staphylococcus sp.,2 µg/mL
same,MIC Coagulase Negative Staphylococcus (GC 4548),Staphylococcus sp.,2 µg/mL
same,MIC Coagulase Negative Staphylococcus (GC 4549),Staphylococcus sp.,2 µg/mL
same,MIC Coagulase Negative Staphylococcus (GC 4551),Staphylococcus sp.,4 µg/mL
same,MIC Coagulase Negative Staphylococcus (GC 6257),Staphylococcus sp.,1 µg/mL
same,MIC Staphylococcus aureus (ATCC 29213),Staphylococcus sp.,4 µg/mL
same,MIC Staphylococcus aureus (GC 1131),Staphylococcus sp.,4 µg/mL
same,MIC Staphylococcus aureus (GC 3051),Staphylococcus sp.,4 µg/mL
same,MIC Staphylococcus aureus (GC 3053),Staphylococcus sp.,8 µg/mL
same,MIC Staphylococcus aureus (GC 4541),Staphylococcus sp.,4 µg/mL
same,MIC Staphylococcus aureus (GC 4542),Staphylococcus sp.,4 µg/mL
same,MIC Staphylococcus aureus (GC 4544),Staphylococcus sp.,8 µg/mL
same,MIC Staphylococcus aureus (GC 4545),Staphylococcus sp.,2 µg/mL
same,MIC Staphylococcus aureus-SMITH (GC 4543),Staphylococcus sp.,4 µg/mL
same,MIC Staphylococcus haemolyticus (GC 4546),Staphylococcus sp.,2 µg/mL
same,MIC Staphylococcus aureus (ATCC 29213),Staphylococcus sp.; strain ATCC 29213,4 µg/mL
same,MIC Staphylococcus aureus (GC 1131),Staphylococcus sp.; strain GC 1131,4 µg/mL
same,MIC Staphylococcus aureus (GC 3051),Staphylococcus sp.; strain GC 3051,4 µg/mL
same,MIC Staphylococcus aureus (GC 3053),Staphylococcus sp.; strain GC 3053,8 µg/mL
same,MIC Staphylococcus aureus (GC 4541),Staphylococcus sp.; strain GC 4541,4 µg/mL
same,MIC Staphylococcus aureus (GC 4542),Staphylococcus sp.; strain GC 4542,4 µg/mL
same,MIC Staphylococcus aureus-SMITH (GC 4543),Staphylococcus sp.; strain GC 4543,4 µg/mL
same,MIC Staphylococcus aureus (GC 4544),Staphylococcus sp.; strain GC 4544,8 µg/mL
same,MIC Staphylococcus aureus (GC 4545),Staphylococcus sp.; strain GC 4545,2 µg/mL
same,MIC Staphylococcus haemolyticus (GC 4546),Staphylococcus sp.; strain GC 4546,2 µg/mL
same,MIC Coagulase Negative Staphylococcus (GC 4547),Staphylococcus sp.; strain GC 4547,2 µg/mL
same,MIC Coagulase Negative Staphylococcus (GC 4548),Staphylococcus sp.; strain GC 4548,2 µg/mL
same,MIC Coagulase Negative Staphylococcus (GC 4549),Staphylococcus sp.; strain GC 4549,2 µg/mL
same,MIC Coagulase Negative Staphylococcus (GC 4551),Staphylococcus sp.; strain GC 4551,4 µg/mL
same,MIC Coagulase Negative Staphylococcus (GC 6257),Staphylococcus sp.; strain GC 6257,1 µg/mL
same,MIC Streptococcus agalactiae (GC 4564),Streptococcus sp.,2 µg/mL
same,MIC Streptococcus pneumoniae (ATCC 6301),Streptococcus sp.,1 µg/mL
same,MIC Streptococcus pneumoniae (GC 1894),Streptococcus sp.,0.5 µg/mL
same,MIC Streptococcus pneumoniae (GC 4565),Streptococcus sp.,1 µg/mL
same,MIC Streptococcus pyogenes (GC 4563),Streptococcus sp.,1 µg/mL
same,MIC Streptococcus pneumoniae (ATCC 6301),"Streptococcus sp.; inoculum 5×10^5 CFU/mL, strain ATCC 6301",1 µg/mL
same,MIC Streptococcus pneumoniae (GC 1894),"Streptococcus sp.; inoculum 5×10^5 CFU/mL, strain GC 1894",0.5 µg/mL
same,MIC Streptococcus pyogenes (GC 4563),"Streptococcus sp.; inoculum 5×10^5 CFU/mL, strain GC 4563",1 µg/mL
same,MIC Streptococcus agalactiae (GC 4564),"Streptococcus sp.; inoculum 5×10^5 CFU/mL, strain GC 4564",2 µg/mL
same,MIC Streptococcus pneumoniae (GC 4565),"Streptococcus sp.; inoculum 5×10^5 CFU/mL, strain GC 4565",1 µg/mL
same,MIC Enterococcus avium (GC 4558),Enterococcus sp.,16 µg/mL
same,MIC Enterococcus faecalis (ATCC 29212),Enterococcus sp.,16 µg/mL
same,MIC Enterococcus faecalis (GC 2242),Enterococcus sp.,16 µg/mL
same,MIC Enterococcus faecalis (GC 2691),Enterococcus sp.,16 µg/mL
same,MIC Enterococcus faecalis (GC 3059),Enterococcus sp.,32 µg/mL
same,MIC Enterococcus faecalis (GC 4552),Enterococcus sp.,32 µg/mL
same,MIC Enterococcus faecalis (GC 4553),Enterococcus sp.,32 µg/mL
same,MIC Enterococcus faecalis (GC 4554),Enterococcus sp.,32 µg/mL
same,MIC Enterococcus faecalis (GC 6189),Enterococcus sp.,16 µg/mL
same,MIC Enterococcus faecium (GC 2243),Enterococcus sp.,16 µg/mL
same,MIC Enterococcus faecium (GC 4556),Enterococcus sp.,32 µg/mL
same,MIC Enterococcus faecium (GC 4557),Enterococcus sp.,4 µg/mL
same,MIC Enterococcus faecalis (ATCC 29212),Enterococcus sp.; strain ATCC 29212,16 µg/mL
same,MIC Enterococcus faecium (GC 2243),Enterococcus sp.; strain GC 2243,16 µg/mL
same,MIC Enterococcus faecalis (GC 4552),Enterococcus sp.; strain GC 4552,32 µg/mL
same,MIC Enterococcus faecalis (GC 4553),Enterococcus sp.; strain GC 4553,32 µg/mL
same,MIC Enterococcus faecalis (GC 4554),Enterococcus sp.; strain GC 4554,32 µg/mL
same,MIC Enterococcus faecium (GC 4556),Enterococcus sp.; strain GC 4556,32 µg/mL
same,MIC Enterococcus faecium (GC 4557),Enterococcus sp.; strain GC 4557,4 µg/mL
same,MIC Enterococcus avium (GC 4558),Enterococcus sp.; strain GC 4558,16 µg/mL
same,MIC Enterococcus faecalis (GC 6189),Enterococcus sp.; strain GC 6189,16 µg/mL
same,MIC Enterococcus faecalis (GC 2242),"Enterococcus sp.; inoculum 5×10^5 CFU/mL, strain GC 2242",16 µg/mL
same,MIC Enterococcus faecalis (GC 2691),"Enterococcus sp.; inoculum 5×10^5 CFU/mL, strain GC 2691",16 µg/mL
same,MIC Enterococcus faecalis (GC 3059),"Enterococcus sp.; inoculum 5×10^5 CFU/mL, strain GC 3059",32 µg/mL
